The values below come from ChEMBL document CHEMBL4325920, “Discovery of Clinical Candidate BMS-823778 as an Inhibitor of Human 11β-Hydroxysteroid Dehydrogenase Type 1 (11β-HSD-1)” (ACS Med Chem Lett, 2018).

Test [1] concerns the target T1, 11-beta-hydroxysteroid dehydrogenase type 2 (Homo sapiens) (UniProt P80365).
T1 sequence (whole entry): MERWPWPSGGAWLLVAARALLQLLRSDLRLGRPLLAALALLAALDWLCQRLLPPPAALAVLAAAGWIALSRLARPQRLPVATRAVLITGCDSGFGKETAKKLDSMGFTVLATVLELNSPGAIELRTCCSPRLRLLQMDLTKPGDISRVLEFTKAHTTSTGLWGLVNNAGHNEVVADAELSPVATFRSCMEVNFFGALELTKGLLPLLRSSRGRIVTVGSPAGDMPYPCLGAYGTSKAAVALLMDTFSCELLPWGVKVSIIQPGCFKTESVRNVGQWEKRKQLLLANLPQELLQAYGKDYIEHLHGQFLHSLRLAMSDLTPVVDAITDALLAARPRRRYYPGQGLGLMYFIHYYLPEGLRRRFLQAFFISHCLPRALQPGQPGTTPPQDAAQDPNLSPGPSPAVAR
The experiment in a line: Inhibition of recombinant human 11beta-HSD2 expressed in cells up to 30 uM using […] as substrate by LC-MS analysis. The test is classed as cell-based.

Test [2] concerns the target T2, 11-beta-hydroxysteroid dehydrogenase type 2 (Rattus norvegicus) (UniProt P50233).
T2 sequence (whole entry): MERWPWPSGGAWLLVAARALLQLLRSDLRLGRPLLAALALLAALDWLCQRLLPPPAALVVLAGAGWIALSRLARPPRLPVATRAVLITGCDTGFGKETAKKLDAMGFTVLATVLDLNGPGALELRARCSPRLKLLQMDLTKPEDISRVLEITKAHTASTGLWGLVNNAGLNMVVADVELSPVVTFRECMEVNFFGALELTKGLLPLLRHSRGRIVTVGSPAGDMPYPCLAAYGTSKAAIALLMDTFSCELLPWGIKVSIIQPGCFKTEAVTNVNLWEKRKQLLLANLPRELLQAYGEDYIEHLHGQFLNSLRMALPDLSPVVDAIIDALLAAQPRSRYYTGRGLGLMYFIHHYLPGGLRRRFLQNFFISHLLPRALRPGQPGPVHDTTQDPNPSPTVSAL
The experiment in a line: Inhibition of rat 11beta-HSD2 up to 20 uM.

Test [3] in a line: Selectivity ratio of Ki for recombinant mouse 11beta-HSD1 expressed in HEK293 cell microsomes to Ki for recombinant cynomolgus monkey 11beta-HSD1 expressed in HEK293 cell microsomes.
For the next test, the species on record is Macaca fascicularis. The experiment in a line: Inhibition of cynomolgus monkey 11beta-HSD2 up to 20 uM.
Test [4] deals with T3, 11-beta-hydroxysteroid dehydrogenase type 2 (Mus musculus) (UniProt P51661).
T3 sequence (whole entry): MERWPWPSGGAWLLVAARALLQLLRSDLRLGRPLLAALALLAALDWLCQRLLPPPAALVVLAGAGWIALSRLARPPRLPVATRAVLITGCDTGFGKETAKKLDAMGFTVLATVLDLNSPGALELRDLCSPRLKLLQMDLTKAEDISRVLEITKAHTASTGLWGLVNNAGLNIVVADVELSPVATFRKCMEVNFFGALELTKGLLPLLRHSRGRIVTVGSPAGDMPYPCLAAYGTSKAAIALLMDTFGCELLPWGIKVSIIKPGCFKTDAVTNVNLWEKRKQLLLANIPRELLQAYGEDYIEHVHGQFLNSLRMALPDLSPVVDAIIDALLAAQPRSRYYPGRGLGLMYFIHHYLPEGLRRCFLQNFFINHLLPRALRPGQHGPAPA
Kind of test: Inhibition of mouse 11beta-HSD2 up to 20 uM.

Active and inactive are the calls of the source. The calls are words filed in the database; no cut-off is given here.

On to `CC(C)(O)c1cccn2c(C3(c4ccc(Cl)cc4)CC3)nnc12`, for which the inhibition entry (in test [1]; in test [2]; in the test filed under Macaca fascicularis; in test [4]) was “inactive” each time. Further, the Ratio Ki in test [3] was 55.
